For four compounds, Ki results are on record in ChEMBL document CHEMBL2074515, “Inhibitory effect of anti-diabetic agents on rat organic anion transporter rOAT1” (Eur J Pharmacol, 2000).

The term Ki denotes a measure of affinity in units of concentration, obtained from inhibition or displacement. A higher Ki goes with lower affinity.

The target of the test is T1, Solute carrier family 22 member 6 (Rattus norvegicus, UniProt O35956).
T1 sequence (O35956 whole entry): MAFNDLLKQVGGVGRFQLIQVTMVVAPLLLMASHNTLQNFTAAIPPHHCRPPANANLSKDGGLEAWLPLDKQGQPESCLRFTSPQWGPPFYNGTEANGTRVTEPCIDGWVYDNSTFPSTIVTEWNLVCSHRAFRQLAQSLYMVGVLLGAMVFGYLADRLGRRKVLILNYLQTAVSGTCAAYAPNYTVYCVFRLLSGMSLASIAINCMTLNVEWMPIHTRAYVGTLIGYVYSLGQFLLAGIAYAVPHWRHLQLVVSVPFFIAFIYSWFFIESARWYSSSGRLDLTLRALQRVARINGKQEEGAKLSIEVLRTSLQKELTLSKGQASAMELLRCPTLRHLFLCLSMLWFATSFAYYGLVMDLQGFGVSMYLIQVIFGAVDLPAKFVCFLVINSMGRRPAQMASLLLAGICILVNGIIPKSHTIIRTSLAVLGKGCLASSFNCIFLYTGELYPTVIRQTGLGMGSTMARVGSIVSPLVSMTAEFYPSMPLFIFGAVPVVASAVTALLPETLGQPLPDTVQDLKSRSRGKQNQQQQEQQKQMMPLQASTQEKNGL
Put plainly: TP_TRANSPORTER: inhibition of PAH uptake in Xenopus laevis oocytes. Format: functional, cell-based, Oocyte.

For `CCCNC(=O)NS(=O)(=O)c1ccc(Cl)cc1` [CHLORPROPAMIDE], affinity was put at a Ki of 39.5 µM. The figure for `CC(C)[C@H]1CC[C@H](C(=O)N[C@H](Cc2ccccc2)C(=O)O)CC1` [NATEGLINIDE] is 9.2 µM. Under `CCCCNC(=O)NS(=O)(=O)c1ccc(C)cc1` [TOLBUTAMIDE] stands 55.5 µM; under `COc1ccc(Cl)cc1C(=O)NCCc1ccc(S(=O)(=O)NC(=O)NC2CCCCC2)cc1` [GLYBURIDE], 1.6 µM.
